Laboratory results from the supplement of paper PMC9912026.

Test system: A375_Cra_F7_5/13
Test: pERK immunofluorescence, normalised; higher = more ERK phosphorylation
Conditions: vemurafenib 0 µM, drug treatment time 24 h
Procedure: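 A375 or A375 CRISPRa-EGFR (A375_Cra_F7_5/13) cells were adapted for 24 h to a cobimetinib dose series, with or without 1 uM vemurafenib, then stimulated with EGF (100 ng/mL) or mock medium and fixed at the indicated times. pERK was measured by immunofluorescence as the population mean normalised to baseline, with the SD of technical replicates (n=2).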

O=C(c1ccc(F)c(F)c1Nc1ccc(I)cc1F)N1CC(O)([C@@H]2CCCCN2)C1 [cobimetinib]
pERK immunofluorescence
Conditions	cobimetinib 31.62 pM	cobimetinib 0.0001 µM	cobimetinib 0.000316228 µM	cobimetinib 0.001 µM	cobimetinib 0.003162278 µM	cobimetinib 0.01 µM	cobimetinib 0.031622777 µM	cobimetinib 0.1 µM	cobimetinib 0.316227766 µM	cobimetinib 1 µM
EGF 0 ng/mL, time after EGF/mock 0.083 h	0.992	1.01	0.951	0.771	0.467	0.234	0.142	0.111	0.0968	0.0989
EGF 0 ng/mL, time after EGF/mock 0.5 h	0.968	0.9446	0.859	0.742	0.422	0.214	0.177	0.143	0.0997	0.09394
EGF 0 ng/mL, time after EGF/mock 2 h	1.05	1.018	1.03	0.8492	0.55	0.217	0.121	0.107	0.1	0.099798
EGF 0 ng/mL, time after EGF/mock 8 h	0.974	0.999	0.9603	0.801	0.47	0.189	0.102	0.086	0.082	0.082503
EGF 0 ng/mL, time after EGF/mock 24 h	1.07	1.053	1.04	0.927	0.531	0.189	0.116	0.1	0.08927	0.0841
EGF 100 ng/mL, time after EGF/mock 0.083 h	1.47	1.44	1.43	1.42	1.37	1.27	1.15	0.883	0.31	0.111
EGF 100 ng/mL, time after EGF/mock 0.5 h	1.35	1.34	1.31	1.36	1.32	1.26	1.15	1.02	0.675	0.179
EGF 100 ng/mL, time after EGF/mock 2 h	1.21	1.194	1.14	1.08	0.926	0.7446	0.65813	0.527	0.341	0.137
EGF 100 ng/mL, time after EGF/mock 8 h	0.99	0.999	0.997	0.8777	0.735	0.5778	0.475	0.3675	0.221	0.1
EGF 100 ng/mL, time after EGF/mock 24 h	1.07	1.08	1.084	1.04	0.902	0.689	0.5819	0.465	0.273	0.107
